Results from patent US12391706B2, “Multi-target tyrosine kinase inhibitor” (SHENZHEN NEPTUNUS PHARMACEUTICAL RESEARCH INSTITUTE CO., …, priority 2020, dated 2025).

System: not listed separately
Test: Solubility test (water), Chinese Pharmacopoeia 2015
Format: physicochemical
Settings: 25° C.±2° C., dissolution within 30 minutes
Protocol: The series of compounds synthesized in Examples 1-24 were subjected to solubility test (water), according to the solubility test methods in Chinese Pharmacopoeia, 2015 Edition. The specific test operations and evaluation criteria are as follows: An appropriate amount (1 mg-10 mg) of finely powdered compound was weighed, placed in a certain volume of solvent at 25° C.±2° C., and shaken vigorously for 30 seconds every 5 minutes; the dissolution within 30 minutes was observed. It was considered completely dissolved if there were no visible particles or droplets of the solute. [table]
With `O=C(OCCn1cc(-c2cc3nccc(Oc4ccc(NC(=O)C5(C(=O)Nc6ccc(F)cc6)CC5)cc4F)c3s2)cn1)c1ccc(CN2CCCC2)cc1` [td32-4P23] the “Water solubility test Result” value was “D (1 g of solute is soluble in 30~100 mL of sovent)”. In the case of `O=C(Nc1ccc(F)cc1)C1(C(=O)Nc2ccc(Oc3ccnc4cc(-c5cnn(CCOP(=O)(O)O)c5)sc34)c(F)c2)CC1` [td32-4P2, 2-(4-(7-(2-fluoro-4-(1-((4-fluorophenyl)carbamoyl)cyclopropane-1-carboxamide)phenoxy)thieno[3,2-b]pyridin-2-yl)-1H-pyrazolyl-1-yl)ethyl phosphate], the “Water solubility test Result” value is reported as “F (1 g of solute is soluble in 1000~10000 mL of sovent)”. In the case of `NC(=O)CCC(N)C(=O)OCCn1cc(-c2cc3nccc(Oc4ccc(NC(=O)C5(C(=O)Nc6ccc(F)cc6)CC5)cc4F)c3s2)cn1` (stereo not drawn) [td32-4P15, 2-(4-(7-(2-fluoro-4-(1-((4-fluorophenyl)carbamoyl)cyclopropane-1-carboxamide)phenoxy)thieno[3,2-b]pyridin-2-yl)-1H-pyrazolyl-1-yl)ethyl glutaminate], the “Water solubility test Result” value is reported as “D (1 g of solute is soluble in 30~100 mL of sovent)”. With `NC(=O)CC(N)C(=O)OCCn1cc(-c2cc3nccc(Oc4ccc(NC(=O)C5(C(=O)Nc6ccc(F)cc6)CC5)cc4F)c3s2)cn1` (stereo not drawn) [td32-4P14, 2-(4-(7-(2-fluoro-4-(1-((4-fluorophenyl)carbamoyl)cyclopropane-1-carboxamide)phenoxy)thieno[3,2-b]pyridin-2-yl)-1H-pyrazolyl-1-yl)ethyl asparaginate] the “Water solubility test Result” value was “D (1 g of solute is soluble in 30~100 mL of sovent)”. For `CCN(CC)CC(=O)OCCn1cc(-c2cc3nccc(Oc4ccc(NC(=O)C5(C(=O)Nc6ccc(F)cc6)CC5)cc4F)c3s2)cn1` [td32-4P4, 2-(4-(7-(2-fluoro-4-(1-((4-fluorophenyl)carbamoyl)cyclopropane-1-carboxamide)phenoxy)thieno[3,2-b]pyridin-2-yl)-1H-pyrazolyl-1-yl)ethyldiethyl glycinate], the “Water solubility test Result” value was “C (1 g of solute is soluble in 10~30 mL of sovent)”. With `CC(N)C(=O)OCCn1cc(-c2cc3nccc(Oc4ccc(NC(=O)C5(C(=O)Nc6ccc(F)cc6)CC5)cc4F)c3s2)cn1` (stereo not drawn) [td32-4P7, 2-(4-(7-(2-fluoro-4-(1-((4-fluorophenyl)carbamoyl)cyclopropane-1-carboxamide)phenoxy)thieno[3,2-b]pyridin-2-yl)-1H-pyrazolyl-1-yl)ethyl alaninate] the “Water solubility test Result” value was “D (1 g of solute is soluble in 30~100 mL of sovent)”. With `CSCCC(N)C(=O)OCCn1cc(-c2cc3nccc(Oc4ccc(NC(=O)C5(C(=O)Nc6ccc(F)cc6)CC5)cc4F)c3s2)cn1` (stereo not drawn) [td32-4P11, 2-(4-(7-(2-fluoro-4-(1-((4-fluorophenyl)carbamoyl)cyclopropane-1-carboxamide)phenoxy)thieno[3,2-b]pyridin-2-yl)-1H-pyrazolyl-1-yl)ethyl methioninate] the “Water solubility test Result” value was “E (1 g of solute is soluble in 100~1000 mL of sovent)”. With `CC(C(=O)OCCn1cc(-c2cc3nccc(Oc4ccc(NC(=O)C5(C(=O)Nc6ccc(F)cc6)CC5)cc4F)c3s2)cn1)N(C)C` (stereo not drawn) [td32-4P18, 2-(4-(7-(2-fluoro-4-(1-((4-fluorophenyl)carbamoyl)cyclopropane-1-carboxamide)phenoxy)thieno[3,2-b]pyridin-2-yl)-1H-pyrazolyl-1-yl)ethyl N,N-dimethyl alaninate] the “Water solubility test Result” value was “D (1 g of solute is soluble in 30~100 mL of sovent)”. For `O=C(CN1CCOCC1)OCCn1cc(-c2cc3nccc(Oc4ccc(NC(=O)C5(C(=O)Nc6ccc(F)cc6)CC5)cc4F)c3s2)cn1` [td32-4P5, 2-(4-(7-(2-fluoro-4-(1-((4-fluorophenyl)carbamoyl)cyclopropane-1-carboxamide)phenoxy)thieno[3,2-b]pyridin-2-yl)-1H-pyrazolyl-1-yl)ethyl 2-morpholine acetate], the “Water solubility test Result” value was “C (1 g of solute is soluble in 10~30 mL of sovent)”. For `O=C(OCCn1cc(-c2cc3nccc(Oc4ccc(NC(=O)C5(C(=O)Nc6ccc(F)cc6)CC5)cc4F)c3s2)cn1)c1cccc(CN2CCCC2)c1` [td32-4P24], the “Water solubility test Result” value was “D (1 g of solute is soluble in 30~100 mL of sovent)”. In the case of `COC(CNCC(=O)OCCn1cc(-c2cc3nccc(Oc4ccc(NC(=O)C5(C(=O)Nc6ccc(F)cc6)CC5)cc4F)c3s2)cn1)OC` [td32-4P17, 2-(4-(7-(2-fluoro-4-(1-((4-fluorophenyl)carbamoyl)cyclopropane-1-carboxamide)phenoxy)thieno[3,2-b]pyridin-2-yl)-1H-pyrazolyl-1-yl)ethyl(2,2-dimethoxyethyl) glycinate], the “Water solubility test Result” value is reported as “E (1 g of solute is soluble in 100~1000 mL of sovent)”. In the case of `O=C(OCCn1cc(-c2cc3nccc(Oc4ccc(NC(=O)C5(C(=O)Nc6ccc(F)cc6)CC5)cc4F)c3s2)cn1)c1ccc(CN2CCOCC2)cc1` [td32-4P19, 2-(4-(7-(2-fluoro-4-(1-((4-fluorophenyl)carbamoyl)cyclopropane-1-carboxamide)phenoxy)thieno[3,2-b]pyridin-2-yl)-1H-pyrazolyl-1-yl)ethyl 4-(morpholinylmethyl) benzoate], the “Water solubility test Result” value is reported as “F (1 g of solute is soluble in 1000~10000 mL of sovent)”. With `NC(Cc1ccccc1)C(=O)OCCn1cc(-c2cc3nccc(Oc4ccc(NC(=O)C5(C(=O)Nc6ccc(F)cc6)CC5)cc4F)c3s2)cn1` [td32-4P12, 2-(4-(7-(2-fluoro-4-(1-((4-fluorophenyl)carbamoyl)cyclopropane-1-carboxamide)phenoxy)thieno[3,2-b]pyridin-2-yl)-1H-pyrazolyl-1-yl)ethyl L-phenylalaninate] the “Water solubility test Result” value was “F (1 g of solute is soluble in 1000~10000 mL of sovent)”. In the case of `CN1CCN(Cc2ccc(C(=O)OCCn3cc(-c4cc5nccc(Oc6ccc(NC(=O)C7(C(=O)Nc8ccc(F)cc8)CC7)cc6F)c5s4)cn3)cc2)CC1` [td32-4P21, 2-(4-(7-(2-fluoro-4-(1-((4-fluorophenyl)carbamoyl)cyclopropane-1-carboxamide)phenoxy)thieno[3,2-b]pyridin-2-yl)-1H-pyrazol-1-yl)ethyl 4-((methylpiperazin-1-yl)methyl) benzoate], the “Water solubility test Result” value is reported as “D (1 g of solute is soluble in 30~100 mL of sovent)”. For `CC(C)CC(N)C(=O)OCCn1cc(-c2cc3nccc(Oc4ccc(NC(=O)C5(C(=O)Nc6ccc(F)cc6)CC5)cc4F)c3s2)cn1` (stereo not drawn) [td32-4P8, 2-(4-(7-(2-fluoro-4-(1-((4-fluorophenyl)carbamoyl)cyclopropane-1-carboxamide)phenoxy)thieno[3,2-b]pyridin-2-yl)-1H-pyrazolyl-1-yl)ethyl leucinate], the “Water solubility test Result” value was “E (1 g of solute is soluble in 100~1000 mL of sovent)”. In the case of `O=C(OCCn1cc(-c2cc3nccc(Oc4ccc(NC(=O)C5(C(=O)Nc6ccc(F)cc6)CC5)cc4F)c3s2)cn1)C1CCCN1` (stereo not drawn) [td32-4P13, 2-(4-(7-(2-fluoro-4-(1-((4-fluorophenyl)carbamoyl)cyclopropane-1-carboxamide)phenoxy)thieno[3,2-b]pyridin-2-yl)-1H-pyrazolyl-1-yl)ethyl prolinate], the “Water solubility test Result” value is reported as “E (1 g of solute is soluble in 100~1000 mL of sovent)”. In the case of `O=C(OCCn1cc(-c2cc3nccc(Oc4ccc(NC(=O)C5(C(=O)Nc6ccc(F)cc6)CC5)cc4F)c3s2)cn1)c1cccc(CN2CCOCC2)c1` [td32-4P20, 2-(4-(7-(2-fluoro-4-(1-((4-fluorophenyl)carbamoyl)cyclopropane-1-carboxamide)phenoxy)thieno[3,2-b]pyridin-2-yl)-1H-pyrazolyl-1-yl)ethyl 3-(morpholinylmethyl) benzoate], the “Water solubility test Result” value is reported as “F (1 g of solute is soluble in 1000~10000 mL of sovent)”. With `CN1CCN(Cc2cccc(C(=O)OCCn3cc(-c4cc5nccc(Oc6ccc(NC(=O)C7(C(=O)Nc8ccc(F)cc8)CC7)cc6F)c5s4)cn3)c2)CC1` [td32-4P22, 2-(4-(7-(2-fluoro-4-(1-((4-fluorophenyl)carbamoyl)cyclopropane-1-carboxamide)phenoxy)thieno[3,2-b]pyridin-2-yl)-1H-pyrazolyl-1-yl)ethyl 3-((methylpiperazin-1-yl)methyl) benzoate] the “Water solubility test Result” value was “D (1 g of solute is soluble in 30~100 mL of sovent)”. For `NCC(=O)OCCn1cc(-c2cc3nccc(Oc4ccc(NC(=O)C5(C(=O)Nc6ccc(F)cc6)CC5)cc4F)c3s2)cn1` [td32-4P6, 2-(4-(7-(2-fluoro-4-(1-((4-fluorophenyl)carbamoyl)cyclopropane-1-carboxamide)phenoxy)thieno[3,2-b]pyridin-2-yl)-1H-pyrazolyl-1-yl)ethyl glycinate], the “Water solubility test Result” value was “C (1 g of solute is soluble in 10~30 mL of sovent)”. For `O=C(O)CCC(=O)OCCn1cc(-c2cc3nccc(Oc4ccc(NC(=O)C5(C(=O)Nc6ccc(F)cc6)CC5)cc4F)c3s2)cn1` [td32-4P1, 4-(2-(4-(7-(2-fluoro-4-(1-((4-fluorophenyl)carbamoyl)cyclopropane-1-carboxamide)phenoxy)thieno[3,2-b]pyridin-2-yl)-1H-pyrazolyl-1-yl)ethoxy)-4-oxobutyric acid], the “Water solubility test Result” value was “F (1 g of solute is soluble in 1000~10000 mL of sovent)”.

System: MKN-45 gastric cancer cells
Test: Gastric cancer cell MKN45 xenograft model
Format: in vivo, nude mice
Settings: oral 100 mg·kg^−1 once a day for 14 days
Text: • 1. Compounds (td32-4, td32-4P3, td32-4P6, td32-4P9, td32-4P10) were selected for in vivo activity evaluation at a single concentration. The animal model was gastric cancer cell MKN45 xenograft model.
Test method: 5×10^6 MKN-45 gastric cancer cells were inoculated under the fat pad of the right rib of nude mice, and the tumor formation was observed. Two weeks after the inoculation, the tumor-bearing mice were divided into groups and orally administered with td32-4, td32-4P3, td32-4P6, td32-4P9, and td32-4P10 at a dose of 100 mg·kg^−1, once a day for 14 days, respectively. Tumor volumes were measured with a caliper and recorded.
For `NCC(=O)OCCn1cc(-c2cc3nccc(Oc4ccc(NC(=O)C5(C(=O)Nc6ccc(F)cc6)CC5)cc4F)c3s2)cn1` [td32-4P6, 2-(4-(7-(2-fluoro-4-(1-((4-fluorophenyl)carbamoyl)cyclopropane-1-carboxamide)phenoxy)thieno[3,2-b]pyridin-2-yl)-1H-pyrazolyl-1-yl)ethyl glycinate], the “tumor inhibitory effect (tumor volume)” value was “moderate inhibitory activity”.
